As usually defined, the EC50 is the concentration giving half of the maximal effect.

“And” between values parts separate entries of the source, which are not always exact repeats. Equal entries are not always repeated. Records with an inconclusive call do not appear.

This assay relates to T. cruzi beta-gal in NIH3T3, GalScreen luminescence, 90 h. Briefly: T. cruzi infection blockers in NIH3T3 cells – beta-gal luminescence, NIH3T3 host cells, confirmation (AID 2630).

Take `CN(Cc1ccccc1)C(=O)C1CCCN(Cc2cccc(Cl)c2)C1` (configuration not stated): the EC50 was 231 nM and 34.7 nM.

With `CC(C)Oc1cccc(C(=O)C2CCCN(Cc3cnn(C(C)C)c3)C2)c1` (configuration not stated), the EC50 is 68 nM and 16.5 nM.

Values taken from PubChem BioAssay AID2630 (Broad Institute, 2010).
